For the experiment, the target named is T1, Human thrombin (Homo sapiens, UniProt P00734).
T1 construct: purchased Centraal Laboratorium voor Bloedtransfusie, Amsterdam, The Netherlands
As to the kind of experiment: Anti-thrombin assay (hydrolysis of chromogenic substrate S-2238 by thrombin). The class given is biochemical. The note with it: final concentration causing 50% inhibition of the maximum absorbance of the blank; substrate S-2238, TNP buffer, 37° C. How it is done: Thrombin (Factor IIa) is a factor in the coagulation cascade. The anti-thrombin activity of compounds of the present invention was assessed by measring spectrophotometrically the rate of hydrolysis of the chromogenic substrate s-2238 exterted by thrombin. Ths assay for anti-thrombin activity in a buffer system was used to assess the IC50 -value of a test compound.
Test medium: Trometbine-NaCl-polyethylene glycol 6000 (TNP) buffer. Reference compomd: 12581 (Kabi) Vehicle: TNP buffer. Solubilisation can be assisted with dimethylsulphoxide, methanol, ethanol, acetonitrile or tert.-butyl alcohol which are without adverse effects in concentrations up to 2.5% in the final reaction mixture.
Reagents*: 1. Tromethamine-NaCl (TN) buffer. Composition of the buffer: Tromethaine (Tris) 6.057 g (50 mmol), NaCl 5.844 g (100 mmol), water to 1 l. The pH of the solution is adjusted to 7.4 at 37° C. with HCl (10 mmol·l^-1). 2. TNP buffer: Polyethylene glycol 6000 is dissolved in TN buffer to give a concentration of 3 g·l^-1 3. S-2238 solution: One vial S-2238 (25 mg; Kabi Diagnostica, Sweden) is dissolved in 20 ml TN buffer to give a concentration of 1.25 mg·ml^-1 (2 mmol l^-1). 4. Thrombin solution: Human thrombin (16 000 nKat·vial^-1; Centraal Laboratorium voor Bloedtransfusie, Amsterdam, The Netherlands) is dissolved in TNP buffer to give a stock solution of 835 nKat·ml^-1. Immediately before use this solution is diluted with TNP buffer to give a concentration of 3.34 nKat·ml^-1.
The test and reference compounds are dissolved in Milli-Q water to give stock concentrations of 10^-2 mol·l^31 1. Each concentration is stepwise diluted with the vehicle to give concentrations of 10^-3, 10^31 4 and 10^-5 mol·l^-1. The dilutions, including the stock solution, are used in the assay (fina concentrations in the reaction mixture: 3·10^-3; 10^31 3; […]; 3·10^-5; 10^-5; 3·10^-6 and 10^-6 mol·l^-1, respectively).
At room temperature 0.075 ml and 0.025 ml test compound or reference compound solutions or vehicle are alternately pipetted into the wells of a microtiter plate and these solutions are diluted with 0.115 ml and […] TNP buffer, respectively. An aliquot of 0.030 ml S-2238 solution is added to each well and the plate is preheated and pre-incubated with shaking in an incubator (Amersham) for 10 min. at 37° C. Following pre-incubation the hydrolysis of S-2238 is started by addition of 0.030 ml thrombin solution to each well. The plate is incubated (with shaking for 30 s) at 37° C. Starting after 1 min of incubation, the absorbance of each sample at 405 nm is measured every 2 min. for a period of 90 min. using a kinetic microtiter plate reader (Twinreader plus, Flow Laboratories).
All data are collected in an IBM personal computer using LOTUS-MEASURE. For each compound concentration (expressed in mol·l^-1 reaction mixture) and for the blank the absorbance is plotted versus the reaction time in min.
Evaluation of responses: For each final concentration the maximum absorbance was calculated from the assay plot. The IC50 -value (final concentration, expressed in μmol·l^-1, causing 50% inhibition of the maximum absorbance of the blank) was calculated using the logit transformation analysis according to Hafier et al. (Arzneim.-Forsch.ADrug Res. 1977; 27(II): 1871-3).

The values below come from US6218365A, “Serine protease inhibitors” (Akzo Nobel N.V., priority 1996, dated 2001).

In turn, “HOOC--CH2 --D--Phe--Pro--Ppa.PSI.[COCO]--OH [Example 3]” came in with an IC50 of 540 nM. This lies in the sub-micromolar range.

In the case of “3,3-Diphenyipropionyl--Pro--Ppa.PSI.[COCO]--OH [Example 15]”, the IC50 came out at 950 nM.

As to “HOOC--CH2 --D--Coa--Pro--Ppa--(2-thiazolyl) [Example 53]”, half-maximal inhibition (IC50) required 2600 nM.

“HOOC--CH2 --D--Cha--Pro--Ppa.PSI.[COCO]--NHMe [Example 31]” displayed an IC50 of 245 nM. This IC50 lies about 11-fold lower than the previous one.

The substance “HOOC--CH2 --p--Cl--D--Phe--Pro--Ppa--(2-thiazolyl) [Example 47]” returned an IC50 of 2830 nM.

Consider “EthylSOx --D--Phe--Pr0--.PSI.[COCO]--NH2 [Example 38]”, for which it took 1800 nM to reach half-maximal inhibition (IC50).
